Source: paper PMC10460844, “Real‐Time Monitoring of Multitarget Antimicrobial Mechanisms of Peptoids Using Label‐Free Imaging with Optical Diffraction Tomography” (Advanced Science, 2023)
Square brackets hold non-standard residues; d marks the D form. Peptide text beside a SMILES is read from it. Gly(N(CH2)2(3-indolyl)) = O=C(O)CNCCc1c[nH]c2ccccc12; Nspe = C[C@H](NCC(=O)O)c1ccccc1; Nphe = O=C(O)CNCc1ccccc1; Nlys = NCCCCNCC(=O)O

How the values were obtained:
[1] = Analytical reversed-phase HPLC elution (hydrophobicity); format: physicochemical; details: Table S1; analytical RP-HPLC, SunFire C18, water/ACN + 0.1% TFA, 5 to 100% B linear over 30 min, 1 mL/min, UV 220 nm; approximate comparison of hydrophobicity
Method in brief: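 Analytical reversed-phase HPLC on a C18 column (4.6 × 250 mm, 5 μm) at 1 mL/min, water/acetonitrile each with 0.1% TFA. Held at 5% B for 2 min, then linear to 100% B over 30 min and held 5 min, with UV detection at 220 nm; retention time (tR) serves as hydrophobicity measure.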

rat erythrocytes = assay: Hemolysis assay; format: cell-based
Method in brief: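 Washed Sprague-Dawley rat erythrocytes (10% suspension in PBS pH 7.4) mixed with peptoids (0–100 µM), 60 min at 37 °C; supernatant A540 expressed as % of 1% Triton X-100 lysis. HC10/HC50 are concentrations giving 10%/50% hemolysis; Hmax is hemolysis at 100 µM.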

## C[C@@H](c1ccccc1)N(CC(N)=O)C(=O)CN(C(=O)CN(CCCCN)C(=O)CN(C(=O)CN(CCCCN)C(=O)CN(CCCCN)C(=O)CN(C(=O)CN(C(=O)CN(CCCCN)C(=O)CN(CCc1c[nH]c2ccccc12)C(=O)CN(CCc1c[nH]c2ccccc12)C(=O)CNCCCCN)[C@@H](C)c1ccccc1)[C@@H](C)c1ccccc1)[C@@H](C)c1ccccc1)[C@@H](C)c1ccccc1 [peptoid 33]
[1]
  HPLC elution: 47.9 % MeCN
Rat erythrocytes
  Hmax (100 µM): 5.0±0.2%
Rat erythrocytes; pH 7.4
  HC10: > 100 µM
  HC50: > 100 µM

## C[C@@H](c1ccccc1)N(CC(N)=O)C(=O)CN(C(=O)CN(CCCCN)C(=O)CN(C(=O)CN(C(=O)CN(CCCCN)C(=O)CN(C(=O)CN(CCCCN)C(=O)CN(CCCCN)C(=O)CN(CCc1c[nH]c2ccccc12)C(=O)CN(CCc1c[nH]c2ccccc12)C(=O)CNCCCCN)[C@@H](C)c1ccccc1)[C@@H](C)c1ccccc1)[C@@H](C)c1ccccc1)[C@@H](C)c1ccccc1 [peptoid 34]
[1]
  HPLC elution: 48.6 % MeCN
Rat erythrocytes
  Hmax (100 µM): 8.5±1.1%
Rat erythrocytes; pH 7.4
  HC10: > 100 µM
  HC50: > 100 µM

## C[C@@H](c1ccccc1)N(CC(N)=O)C(=O)CN(C(=O)CN(CCCCN)C(=O)CN(C(=O)CN(CCCCN)C(=O)CN(CCCCN)C(=O)CN(C(=O)CN(C(=O)CN(CCCCN)C(=O)CN(C(=O)CN(C(=O)CN(CCCCN)C(=O)CN(CCc1c[nH]c2ccccc12)C(=O)CNCCc1c[nH]c2ccccc12)[C@@H](C)c1ccccc1)[C@@H](C)c1ccccc1)[C@@H](C)c1ccccc1)[C@@H](C)c1ccccc1)[C@@H](C)c1ccccc1)[C@@H](C)c1ccccc1 [peptoid 35]
[1]
  HPLC elution: 51.8 % MeCN
Rat erythrocytes
  Hmax (100 µM): 82.6±3.2%
Rat erythrocytes; pH 7.4
  HC10: 20.4 µM
  HC50: 63.0 µM

## C[C@@H](c1ccccc1)N(CC(N)=O)C(=O)CN(C(=O)CN(CCCCN)C(=O)CN(C(=O)CN(C(=O)CN(CCCCN)C(=O)CN(C(=O)CN(C(=O)CN(CCCCN)C(=O)CN(C(=O)CN(CCCCN)C(=O)CN(CCCCN)C(=O)CN(CCc1c[nH]c2ccccc12)C(=O)CNCCc1c[nH]c2ccccc12)[C@@H](C)c1ccccc1)[C@@H](C)c1ccccc1)[C@@H](C)c1ccccc1)[C@@H](C)c1ccccc1)[C@@H](C)c1ccccc1)[C@@H](C)c1ccccc1 [peptoid 36]
[1]
  HPLC elution: 52.4 % MeCN
Rat erythrocytes
  Hmax (100 µM): 89.1±3.4%
Rat erythrocytes; pH 7.4
  HC10: 15.3 µM
  HC50: 39.4 µM

## C[C@@H](c1ccccc1)N(CC(=O)N(CCCCN)CC(=O)N(CC(=O)N(CC(=O)N(CCCCN)CC(=O)N(CC(=O)N(CC(=O)N(CCCCN)CC(N)=O)[C@@H](C)c1ccccc1)[C@@H](C)c1ccccc1)[C@@H](C)c1ccccc1)[C@@H](C)c1ccccc1)C(=O)CN(C(=O)CN(CCCCN)C(=O)CN(CCc1c[nH]c2ccccc12)C(=O)CNCCc1c[nH]c2ccccc12)[C@@H](C)c1ccccc1 [peptoid 37] (H-[Gly(N(CH2)2(3-indolyl))][Gly(N(CH2)2(3-indolyl))][Nlys][Nspe][Nspe][Nlys][Nspe][Nspe][Nlys][Nspe][Nspe][Nlys]-NH2)
[1]
  HPLC elution: 52.7 % MeCN
Rat erythrocytes; pH 7.4
  HC10: 21.1 µM
  HC50: 57.0 µM
Rat erythrocytes; red cells of rat
  HC10: 13.2 µM
  HC50: 38.6 µM

## C[C@@H](c1ccccc1)N(CC(=O)N(CCCCN)CC(=O)N(CCCCN)CC(=O)N(CC(=O)N(CC(=O)N(CCCCN)CC(=O)N(CC(=O)N(CC(=O)N(CCCCN)CC(N)=O)[C@@H](C)c1ccccc1)[C@@H](C)c1ccccc1)[C@@H](C)c1ccccc1)[C@@H](C)c1ccccc1)C(=O)CN(CCCCN)C(=O)CN(CCc1c[nH]c2ccccc12)C(=O)CNCCc1c[nH]c2ccccc12 [peptoid 38] (H-[Gly(N(CH2)2(3-indolyl))][Gly(N(CH2)2(3-indolyl))][Nlys][Nspe][Nlys][Nlys][Nspe][Nspe][Nlys][Nspe][Nspe][Nlys]-NH2)
[1]
  HPLC elution: 47.8 % MeCN
Rat erythrocytes
  Hmax (100 µM): 5.9±0.5%
Rat erythrocytes; pH 7.4
  HC10: > 100 µM
  HC50: > 100 µM

## C[C@@H](c1ccccc1)N(CC(=O)N(CCCCN)CC(=O)N(CC(=O)N(CC(=O)N(CCCCN)CC(=O)N(CCCCN)CC(=O)N(CC(=O)N(CCCCN)CC(=O)N(CCc1c[nH]c2ccccc12)CC(=O)N(CCc1c[nH]c2ccccc12)CC(N)=O)Cc1ccccc1)[C@@H](C)c1ccccc1)[C@@H](C)c1ccccc1)C(=O)CN(C(=O)CNCCCCN)[C@@H](C)c1ccccc1 [peptoid 39] (H-[Nlys][Nspe][Nspe][Nlys][Nspe][Nspe][Nlys][Nlys][Nphe][Nlys][Gly(N(CH2)2(3-indolyl))][Gly(N(CH2)2(3-indolyl))]-NH2)
[1]
  HPLC elution: 47.8 % MeCN
Rat erythrocytes
  Hmax (100 µM): 10.2±0.3%
Rat erythrocytes; pH 7.4
  HC10: 100 µM
  HC50: > 100 µM

## C[C@@H](c1ccccc1)N(CC(=O)N(CCCCN)CC(=O)N(CCc1c[nH]c2ccccc12)CC(=O)N(CCc1c[nH]c2ccccc12)CC(N)=O)C(=O)CN(CCCCN)C(=O)CN(CCCCN)C(=O)CN(Cc1ccccc1)C(=O)CN(Cc1ccccc1)C(=O)CN(CCCCN)C(=O)CN(C(=O)CN(C(=O)CNCCCCN)[C@@H](C)c1ccccc1)[C@@H](C)c1ccccc1 [peptoid 40] (H-[Nlys][Nspe][Nspe][Nlys][Nphe][Nphe][Nlys][Nlys][Nspe][Nlys][Gly(N(CH2)2(3-indolyl))][Gly(N(CH2)2(3-indolyl))]-NH2)
[1]
  HPLC elution: 47.5 % MeCN
Rat erythrocytes
  Hmax (100 µM): 8.9±0.2%
Rat erythrocytes; pH 7.4
  HC10: > 100 µM
  HC50: > 100 µM

## C[C@@H](c1ccccc1)N(CC(=O)N(CCCCN)CC(=O)N(CCc1c[nH]c2ccccc12)CC(=O)N(CCc1c[nH]c2ccccc12)CC(N)=O)C(=O)CN(CCCCN)C(=O)CN(CCCCN)C(=O)CN(C(=O)CN(C(=O)CN(CCCCN)C(=O)CN(Cc1ccccc1)C(=O)CN(Cc1ccccc1)C(=O)CNCCCCN)[C@@H](C)c1ccccc1)[C@@H](C)c1ccccc1 [peptoid 41] (H-[Nlys][Nphe][Nphe][Nlys][Nspe][Nspe][Nlys][Nlys][Nspe][Nlys][Gly(N(CH2)2(3-indolyl))][Gly(N(CH2)2(3-indolyl))]-NH2)
[1]
  HPLC elution: 47.5 % MeCN
Rat erythrocytes
  Hmax (100 µM): 7.1±0.1%
Rat erythrocytes; pH 7.4
  HC10: > 100 µM
  HC50: > 100 µM

## C[C@@H](c1ccccc1)N(CC(=O)N(CCCCN)CC(=O)N(CC(=O)N(CC(=O)N(CCCCN)CC(=O)N(CC(=O)N(CC(=O)N(CCCCN)CC(=O)N(CC(=O)N(CC(=O)N(CC(N)=O)Cc1ccccc1)[C@@H](C)c1ccccc1)[C@@H](C)c1ccccc1)[C@@H](C)c1ccccc1)[C@@H](C)c1ccccc1)[C@@H](C)c1ccccc1)[C@@H](C)c1ccccc1)C(=O)CN(C(=O)CN(CCCCN)C(=O)CNCc1ccccc1)[C@@H](C)c1ccccc1 [peptoid 42] (H-[Nphe][Nlys][Nspe][Nspe][Nlys][Nspe][Nspe][Nlys][Nspe][Nspe][Nlys][Nspe][Nspe][Nphe]-NH2)
[1]
  HPLC elution: 57.7 % MeCN
Rat erythrocytes
  Hmax (100 µM): 105.9±1.1%
Rat erythrocytes; pH 7.4
  HC10: < 3.1 µM
  HC50: 6.6 µM

## C[C@@H](c1ccccc1)N(CC(N)=O)C(=O)CN(C(=O)CN(CCCCN)C(=O)CN(C(=O)CN(C(=O)CN(CCCCN)C(=O)CN(C(=O)CN(C(=O)CN(CCCCN)C(=O)CN(C(=O)CN(C(=O)CN(CCCCN)C(=O)CN(Cc1ccccc1)C(=O)CNCc1ccccc1)[C@@H](C)c1ccccc1)[C@@H](C)c1ccccc1)[C@@H](C)c1ccccc1)[C@@H](C)c1ccccc1)[C@@H](C)c1ccccc1)[C@@H](C)c1ccccc1)[C@@H](C)c1ccccc1 [peptoid 43]
[1]
  HPLC elution: 56.8 % MeCN
Rat erythrocytes
  Hmax (100 µM): 105.6±3.8%
Rat erythrocytes; pH 7.4
  HC10: < 3.1 µM
  HC50: 6.4 µM

## C[C@@H](c1ccccc1)N(CC(=O)N(CCCCN)CC(=O)N(CC(=O)N(CC(=O)N(CCCCN)CC(=O)N(CC(=O)N(CC(=O)N(CCCCN)CC(=O)N(CC(=O)N(CC(N)=O)Cc1ccccc1)Cc1ccccc1)[C@@H](C)c1ccccc1)[C@@H](C)c1ccccc1)[C@@H](C)c1ccccc1)[C@@H](C)c1ccccc1)C(=O)CN(C(=O)CNCCCCN)[C@@H](C)c1ccccc1 [peptoid 44] (H-[Nlys][Nspe][Nspe][Nlys][Nspe][Nspe][Nlys][Nspe][Nspe][Nlys][Nphe][Nphe]-NH2)
[1]
  HPLC elution: 53.1 % MeCN
Rat erythrocytes
  Hmax (100 µM): 97.9±3.7%
Rat erythrocytes; pH 7.4
  HC10: 6.3 µM
  HC50: 28.6 µM

## C[C@@H](c1ccccc1)N(CC(N)=O)C(=O)CN(C(=O)CN(CCCCN)C(=O)CN(C(=O)CN(C(=O)CN(CCCCN)C(=O)CN(C(=O)CN(C(=O)CN(CCCCN)C(=O)CN(Cc1ccccc1)C(=O)CN(Cc1ccccc1)C(=O)CNCCCCN)[C@@H](C)c1ccccc1)[C@@H](C)c1ccccc1)[C@@H](C)c1ccccc1)[C@@H](C)c1ccccc1)[C@@H](C)c1ccccc1 [peptoid 46]
[1]
  HPLC elution: 53.7 % MeCN
Rat erythrocytes
  Hmax (100 µM): 90.8±2.7%
Rat erythrocytes; pH 7.4
  HC10: 6.9 µM
  HC50: 36.5 µM

## C[C@@H](c1ccccc1)N(CC(N)=O)C(=O)CN(CCCCN)C(=O)CN(CCCCN)C(=O)CN(C(=O)CN(C(=O)CN(CCCCN)C(=O)CN(C(=O)CN(C(=O)CN(CCCCN)C(=O)CN(Cc1ccccc1)C(=O)CN(Cc1ccccc1)C(=O)CNCCCCN)[C@@H](C)c1ccccc1)[C@@H](C)c1ccccc1)[C@@H](C)c1ccccc1)[C@@H](C)c1ccccc1 [peptoid 47]
[1]
  HPLC elution: 47.8 % MeCN
Rat erythrocytes
  Hmax (100 µM): 4.8±0.2%
Rat erythrocytes; pH 7.4
  HC10: > 100 µM
  HC50: > 100 µM

## C[C@H](NCC(=O)N(CCCCN)CC(=O)N(CC(=O)N(CC(=O)N(CCCCN)CC(=O)N(CC(=O)N(CC(=O)N(CCCCN)CC(=O)N(CC(=O)N(CC(=O)N(CCCCN)CC(=O)N(CC(N)=O)[C@@H](C)c1ccccc1)[C@@H](C)c1ccccc1)[C@@H](C)c1ccccc1)[C@@H](C)c1ccccc1)[C@@H](C)c1ccccc1)[C@@H](C)c1ccccc1)[C@@H](C)c1ccccc1)c1ccccc1 [peptoid 48] (H-[Nspe][Nlys][Nspe][Nspe][Nlys][Nspe][Nspe][Nlys][Nspe][Nspe][Nlys][Nspe]-NH2)
[1]
  HPLC elution: 53.4 % MeCN
Rat erythrocytes
  Hmax (100 µM): 79.9±3.6%
Rat erythrocytes; pH 7.4
  HC10: 25.7 µM
  HC50: 48.4 µM
